From patent US20250339402A1, “EFFECTIVE MEANS TO MODULATE NMDA RECEPTOR-MEDIATED TOXICITY” (FUNDAMENTAL PHARMA GMBH, priority 2022, published 2025)
Structures can show the parent of a compound that is named as a salt.

Test system: Primary mouse hippocampal neurons
Assay: Excitotoxic (glutamate/NMDA-induced) cell death in primary neuronal cultures, protection index
Format: cell-based
Conditions: for IC50: Mus musculus, Hippocampal neuron, excitotoxic cell death in primary neuronal cultures
Procedure: Primary mouse hippocampal neurons were prepared as previously described (Bading & Greenberg, Science, 1991; 253: 912-914; Zhang et al, Neuron, 2007, 53: 549-562) and maintained in Neurobasal-A medium supplemented with 2% B27, 5 mM L-Glutamax, and 0.5% Penicillin/Streptomycin until challenged with NMDA on days in vitro (DIV) 10. Glutamate-induced cell death was analyzed in a real-time manner by monitoring nuclear localized mCherry with IncuCyte® S3 Live-Cell Analysis System (Sartorius AG, Germany). Primary neurons plated in 24 well plates were infected with rAAV-hSyn-mCherry on DIV3 and challenged with 1 μM or 20 μM glutamate on DIV10. All compounds were added to the culture 30 min prior to glutamate/NMDA insult. Images were acquired following the glutamate application for 24 h with a 2 h interval, where 9-16 images were obtained via a 20×objective for each condition at each time point. Cell deaths were quantified by analyzing the existence of nuclear localized mCheery via the Basic Analyzer with Incucyte® 2021 software, size and average intensity were used as exclusion criteria.
In order to evaluate the protective effects of various compounds, a quantification method was developed to determine each compound's protection index. The protection index (from 0.0 to 10.0) was calculated by the area above the curve (AAC) during a 24 h excitotoxic stimuli, where the cell survival was normalized to the 0 h (FIG. 2), following the equation: […]
Where AAC represents for each compound, AACbasal represents for the basal condition without excitotoxic insult, AACVeh represents for the vehicle control with excitotoxic insult. Based on the equation, vehicle (DMSO) has a protection index at 0.0 and compound P401 of WO 2020/079244 has a protection index at 6.0 (at 10 μM).
The inventors also performed experiments with Group A compounds at lower concentration in a 3-fold dilution matter ([…]: 3.0, 1.0, 0.3, 0.1, 0.03) and were able to achieve a similar protection effect as 10 μM compound P401, but at a lower concentration.

[1] = second subset, protection index from area above curve over 24 h glutamate/NMDA insult, compounds added 30 min before, 10 μM, Group A also at lower concentrations
[2] = first subset, protection index from area above curve over 24 h glutamate/NMDA insult, compounds added 30 min before, 10 μM, Group A also at lower concentrations
[3] = third subset, A++++ or above correlates with IC50, A++ and A+++ as defined in the source

`CC(c1cccc(Cl)c1F)N(CCN)C1CC1` (single isomer, unassigned; (+)) [Compound 220A, (+)-N1-(1-(3-chloro-2-fluorophenyl)ethyl)-N1-cyclopropylethane-1,2-diamine] was tested, and the “Biological Activity Rating” value [1] was “A++ (With a protection index between 5.0 to 7.0, provides a comparable protection to compound P401 (10 μM) at 1.0 μM.)”.

With `CC(c1cccc(Cl)c1F)N(CCN)C1CC1` (single isomer, unassigned; (-)) [Compound 220B, (−)-N1-(1-(3-chloro-2-fluorophenyl)ethyl)-N1-cyclopropylethane-1,2-diamine] the “Biological Activity Rating” value [1] was “A++++ (With a protection index between 5.0 to 7.0, provides a comparable protection to compound P401 (10 μM) at 0.1 μM.)”.

With `CCN(CCN)Cc1cccc(Cl)c1F` [Compound 91] the “Biological Activity Rating” value [2] was “A (With a protection index over 7.0, provides a significantly better protection over compound P401 (10 μM) at 10 μM.)”.

In the case of `CCN(CCN)Cc1c(F)ccc(Cl)c1F` [Compound 92], the “Biological Activity Rating” value [2] is reported as “A (With a protection index over 7.0, provides a significantly better protection over compound P401 (10 μM) at 10 μM.)”.

`CCN(CCN)Cc1cc(F)cc(Cl)c1` [Compound 94] was tested, and the “Biological Activity Rating” value [2] was “B (With a protection index between 5.0 to 7.0, provides a comparable protection to compound P401 (10 μM) at 10 μM.)”.

In the case of `CCN(CCN)Cc1cc(Cl)ccc1F` [Compound 95], the “Biological Activity Rating” value [2] is reported as “B (With a protection index between 5.0 to 7.0, provides a comparable protection to compound P401 (10 μM) at 10 μM.)”.

In the case of `CCN(CCN)C(C)c1cccc(Cl)c1` (stereo not drawn) [Compound 109], the “Biological Activity Rating” value [1] is reported as “A (With a protection index over 7.0, provides a significantly better protection over compound P401 (10 μM) at 10 μM.)”.

`NCCN(Cc1cccc(Cl)c1F)CC(F)F` [Compound 118, N1-(3-chloro-2-fluorobenzyl)-N1-(2,2-difluoroethyl)ethane-1,2-diamine] was tested, and the “Biological Activity Rating” value [2] was “C (With a protection index between 3.0 to 5.0, provides a significantly lower protection compared to compound P401 (10 μM) at 10 μM.)”.

With `NCCN(Cc1cccc(Cl)c1F)CC(F)(F)F` [Compound 119, N1-(3-chloro-2-fluorobenzyl)-N1-(2,2,2-trifluoroethyl)ethane-1,2-diamine] the “Biological Activity Rating” value [2] was “A (With a protection index over 7.0, provides a significantly better protection over compound P401 (10 μM) at 10 μM.)”.

In the case of `NCCN(Cc1cccc(Cl)c1)C1CCC1` [Compound 123, N1-(3-chlorobenzyl)-N1-cyclobutylethane-1,2-diamine hydrochloride], the “Biological Activity Rating” value [2] is reported as “B (With a protection index between 5.0 to 7.0, provides a comparable protection to compound P401 (10 μM) at 10 μM.)”.

In the case of `NCCN(Cc1cccc(Cl)c1)C1CCCCC1` [Compound 124], the “Biological Activity Rating” value [2] is reported as “B (With a protection index between 5.0 to 7.0, provides a comparable protection to compound P401 (10 μM) at 10 μM.)”.

For `CSCCN(CCN)Cc1cccc(Cl)c1` [Compound 126], the “Biological Activity Rating” value [2] was “B (With a protection index between 5.0 to 7.0, provides a comparable protection to compound P401 (10 μM) at 10 μM.)”.

With `NCCN(Cc1cccc(Cl)c1)CC1CC1` [Compound 134] the “Biological Activity Rating” value [2] was “B (With a protection index between 5.0 to 7.0, provides a comparable protection to compound P401 (10 μM) at 10 μM.)”.

For `NCCN(Cc1cccc(Cl)c1)CC1CCC1` [Compound 135], the “Biological Activity Rating” value [2] was “B (With a protection index between 5.0 to 7.0, provides a comparable protection to compound P401 (10 μM) at 10 μM.)”.

With `C=CCN(CCN)Cc1cccc(Cl)c1` [Compound 136] the “Biological Activity Rating” value [2] was “A (With a protection index over 7.0, provides a significantly better protection over compound P401 (10 μM) at 10 μM.)”.

For `C=CCC(=O)N(CCN)Cc1cccc(Cl)c1` [Compound 137, N-(2-aminoethyl)-N-[(3-chlorophenyl)methyl]but-3-enamide hydrochloride], the “Biological Activity Rating” value [2] was “A (With a protection index over 7.0, provides a significantly better protection over compound P401 (10 μM) at 10 μM.)”.

In the case of `NCCN(Cc1cccc(Cl)c1F)CC1CC1` [Compound 153], the “Biological Activity Rating” value [2] is reported as “C (With a protection index between 3.0 to 5.0, provides a significantly lower protection compared to compound P401 (10 μM) at 10 μM.)”.

In the case of `NCCN(Cc1cccc(Cl)c1F)C1CCC1` [Compound 159, N1-(3-chloro-2-fluorobenzyl)-N1-cyclobutylethane-1,2-diamine dihydrochloride], the “Biological Activity Rating” value [2] is reported as “A++ (With a protection index between 5.0 to 7.0, provides a comparable protection to compound P401 (10 μM) at 1.0 μM.)”.

In the case of `C=CCN(CCN)Cc1cccc(Cl)c1F` [Compound 160], the “Biological Activity Rating” value [2] is reported as “A (With a protection index over 7.0, provides a significantly better protection over compound P401 (10 μM) at 10 μM.)”.

For `CSCCN(CCN)C(C)c1cccc(Cl)c1F` (stereo not drawn) [Compound 169, N1-(2-(methylthio)ethyl)-N1-(1-(3-chloro-2-fluorophenyl)ethyl) ethane-1,2-diamine], the “Biological Activity Rating” value [1] was “B (With a protection index between 5.0 to 7.0, provides a comparable protection to compound P401 (10 μM) at 10 μM.)”.

`C=CCN(CCN)C(C)c1cccc(Cl)c1F` (stereo not drawn) [Compound 172, N1-allyl-N1-(1-(3-chloro-2-fluorophenyl)ethyl)ethane-1,2-diamine hydrochloride] was tested, and the “Biological Activity Rating” value [1] was “A++ (With a protection index between 5.0 to 7.0, provides a comparable protection to compound P401 (10 μM) at 1.0 μM.)”.

`CCN(CCN)Cc1cccc(C#N)c1F` [Compound 175, 3-(((2-aminoethyl)(ethyl)amino)methyl)-2-fluorobenzonitrile TFA salt] was tested, and the “Biological Activity Rating” value [2] was “A+ (With a protection index between 5.0 to 7.0, provides a comparable protection to compound P401 (10 μM) at 3.0 μM.)”.

`CCN(CCN)Cc1cccc(Br)c1F` [Compound 175A] was tested, and the “Biological Activity Rating” value [2] was “A (With a protection index over 7.0, provides a significantly better protection over compound P401 (10 μM) at 10 μM.)”.

For `CCN(CCN)[C@H](C)c1cccc(Cl)c1` [Compound 176, (R)—N1-(1-(3-chlorophenyl)ethyl)-N1-ethylethane-1,2-diamine dihydrochloride], the “Biological Activity Rating” value [1] was “A (With a protection index over 7.0, provides a significantly better protection over compound P401 (10 μM) at 10 μM.)”.

`CCN(CCN)[C@@H](C)c1cccc(Cl)c1` [Compound 177, (S)—N1-(1-(3-chlorophenyl)ethyl)-N1-ethylethane-1,2-diamine dihydrochloride] was tested, and the “Biological Activity Rating” value [1] was “A (With a protection index over 7.0, provides a significantly better protection over compound P401 (10 μM) at 10 μM.)”.

`CC(c1cccc(Cl)c1F)N(CCN)C1CCC1` (stereo not drawn) [Compound 180, N1-(cyclobutyl)-N1-(1-(3-chloro-2-fluorophen, l)ethyl)ethane-1,2-diamine hydrochloride] was tested, and the “Biological Activity Rating” value [1] was “A++ (With a protection index between 5.0 to 7.0, provides a comparable protection to compound P401 (10 μM) at 1.0 μM.)”.

In the case of `CC(c1cccc(Cl)c1F)N(CCN)C12CC(C1)C2` (stereo not drawn) [Compound 182, N1-(bicyclo[1.1.1]pentan-1-yl)-N1-(1-(3-chloro-2-fluorophenyl)ethyl)ethane-1,2-diamine hydrochloride], the “Biological Activity Rating” value [1] is reported as “A+ (With a protection index between 5.0 to 7.0, provides a comparable protection to compound P401 (10 μM) at 3.0 μM.)”.

In the case of `CC(c1cccc(Cl)c1F)N(CCN)C1CCCC1` (stereo not drawn) [Compound 184, N1-(1-(3-chloro-2-fluorophenyl)ethyl)-N1-cyclopentylethane-1,2-diamine dihydrochloride], the “Biological Activity Rating” value [1] is reported as “A (With a protection index over 7.0, provides a significantly better protection over compound P401 (10 μM) at 10 μM.)”.

For `CC(c1cc(Cl)ccc1Cl)N(CCN)C1CC1` (stereo not drawn) [Compound 185, N1-(cyclopropyl)-N1-(1-(2,5-dichlorophenyl)ethyl)ethane-1,2-diamine hydrochloride], the “Biological Activity Rating” value [1] was “A++ (With a protection index between 5.0 to 7.0, provides a comparable protection to compound P401 (10 μM) at 1.0 μM.)”.

With `CC(c1c(F)cccc1Cl)N(CCN)C1CC1` (stereo not drawn) [Compound 186] the IC50 (third subset) was 800 nM and the “Biological Activity Rating” value [3] was “A+++”.

For `CC(c1c(F)ccc(Cl)c1F)N(CCN)C1CC1.Cl` (stereo not drawn) [Compound 187], the IC50 (third subset) was 2000 nM and the “Biological Activity Rating” value [3] was “A++”.

`CC(c1cc(F)cc(F)c1Cl)N(CCN)C1CC1` (stereo not drawn) [Compound 188, N′-[1-(2-chloro-3,5-difluoro-phenyl)ethyl]-N′-cyclopropyl-ethane-1,2-diamine hydrochloride] was tested, and the “Biological Activity Rating” value [1] was “A++ (With a protection index between 5.0 to 7.0, provides a comparable protection to compound P401 (10 μM) at 1.0 μM.)”.

`NCCN(C1CC1)C(c1cccc(Cl)c1F)C1CC1` (stereo not drawn) [Compound 190] showed an IC50 (third subset) of 110 nM.

Compound `CC(c1cccc(Br)c1F)N(CCN)C1CC1` (stereo not drawn) [Compound 191, N^1-(1-(3-bromo-2-fluorophenyl)ethyl)-N^1-cyclopropylethane-1,2-diamine hydrochloride] has an IC50 (third subset) of 230 nM.
